Data as given in patent EP1194447B1, “NOVEL POTASSIUM CHANNELS AND GENES ENCODING THESE POTASSIUM CHANNELS” (NEUROSEARCH A/S, priority 1999, dated 2000).

Experiments:
[1] = target: T1, KCNQ5 coexpressed with KCNQ3 (T323Y) mutant (Homo sapiens, UniProt O43525+Q9NR82, T323Y); assay: Two-electrode voltage clamp of KCNQ5 coexpressed with the KCNQ3 (T323Y) mutant in Xenopus oocytes; format: cell-based; details: coexpression of KCNQ5 with the KCNQ3 (T323Y) mutant; Fig. 5C; read-out: IC50 (TEA sensitivity)
T1 construct: expressed in transfected cells; host or cells: Xenopus oocytes co-injected with cRNAs
Text: Two-electrode voltage-clamp current traces from a Xenopus oocyte injected with KCNQ5 cRNA. […] Starting from a holding potential of -80 mV cells were clamped for 2 seconds to voltages between -80 and +40 mV, in +10 mV steps, followed by a constant test pulse to -30 mV; • Figs. 4A-G show the electrophysiological properties of KCNQ5. Both the splice variant I (found in brain) and splice variant III (found in muscle) were expressed in Xenopus oocytes and examined by two-electrode voltage clamping. Both variants activate slowly upon depolarisation, but form I (4A) initially activates slower than the muscle form III (4B). Starting from a holding potential of -80 mV, the voltage was stepped for 0.8 seconds to values between -100 and + 40 mV in steps of 10 mV, followed by a voltage step to -30 mV (see inset, panel A). Channel activation by depolarization was fitted (for 2 sec. steps) by a sum of three exponential functions. For a step to +20 mV, the rate constants were ô1 = 37. 2 ± 2.2 ms, ô2 = 246 ± 17 ms, and ô3 = 1112 ± 91 ms for splice variant I, while these constants were ô1 = 24.5 ± 0.8 ms, ô2 = 163 ± 6 ms, and ô3 = 1690 ± 46 ms (± SEM, n=16). This difference in kinetics also results in different curves when a typical M-current protocol is used (4C, variant I; 4D, variant III). Variant I induces currents that kinetically resemble M-currents. […]

KCNQ5 = target: T2, KCNQ5 (Homo sapiens, UniProt Q9NR82); assay: Two-electrode voltage clamp of KCNQ5 homomers expressed in Xenopus oocytes; format: cell-based; details: for IC50: extracellular application, Xenopus oocytes, from plotted fit curves (Fig. 5A), means ± SEM of 4 to 12 measurements, read-out: IC50, inhibition of KCNQ5 homomers; for effect on KCNQ5 currents: 10 µM, oocytes injected with KCNQ5 alone (no M1 receptor)
T2 construct: expressed in transfected cells; host or cells: Xenopus oocytes injected with cRNA transcribed from the KCNQ5-containing pTLN vector
Text: Two-electrode voltage-clamp current traces from a Xenopus oocyte injected with KCNQ5 cRNA. […] Starting from a holding potential of -80 mV cells were clamped for 2 seconds to voltages between -80 and +40 mV, in +10 mV steps, followed by a constant test pulse to -30 mV; • Figs. 4A-G show the electrophysiological properties of KCNQ5. Both the splice variant I (found in brain) and splice variant III (found in muscle) were expressed in Xenopus oocytes and examined by two-electrode voltage clamping. Both variants activate slowly upon depolarisation, but form I (4A) initially activates slower than the muscle form III (4B). Starting from a holding potential of -80 mV, the voltage was stepped for 0.8 seconds to values between -100 and + 40 mV in steps of 10 mV, followed by a voltage step to -30 mV (see inset, panel A). Channel activation by depolarization was fitted (for 2 sec. steps) by a sum of three exponential functions. For a step to +20 mV, the rate constants were ô1 = 37. 2 ± 2.2 ms, ô2 = 246 ± 17 ms, and ô3 = 1112 ± 91 ms for splice variant I, while these constants were ô1 = 24.5 ± 0.8 ms, ô2 = 163 ± 6 ms, and ô3 = 1690 ± 46 ms (± SEM, n=16). This difference in kinetics also results in different curves when a typical M-current protocol is used (4C, variant I; 4D, variant III). Variant I induces currents that kinetically resemble M-currents. In this protocol, the membrane voltage is clamped for 1 second to voltages between -30 and -90 mV in steps of -10 mV, from a holding potential of -30 mV. This was followed by a step to -30 mV (panel C, inset). (4E, 4F), apparent open probabilities of variants I (4E) and variant III (4F) as a function of voltage obtained from tail current analysis as described in Methods. Mean values obtained from 12 oocytes are shown. Fitting a Boltzmann equation yielded V½ = -46 ± 1 mV and an apparent gating charge of z = 2.8 ± 0.1 for isoform I, and V½ = -48 ± 1 mV and an apparent gating charge of z = 2.5 ± 0.1 for isoform III. For this fit, values at potentials more positive than +10 mV were excluded, as these are probably affected by a second (inactivation) gating process which leads to a decrease of apparent Popen at more positive potentials. (4G), ion selectivity of KCNQ5 currents (variant I). Extracellular sodium was replaced by equimolar amounts of potassium. The reversal potential is shown as a function of the potassium concentration. […] Data are from 10 oocytes from 2 different batches; • Figs. 5A-C show the pharmacology of KCNQ5 and KCNQ3/5 heteromers. (5A) Inhibition of KCNQ5 homomers by extracellular linopirdine (down triangles), XE991 (up triangles) and TEA (squares). […] (5B) Niflumic acid alters the voltage dependence of the apparent popen. In the presence of 500 µM niflumic acid (open circles), the voltage dependence is shifted about 20 mV towards negative potentials. (5C) TEA sensitivity is altered in KCNQ3/5 heteromers. Coexpression of KCNQ5 and KCNQ3 (1:1) (diamonds) increased the IC50 value to 200 mM, coexpression with the KCNQ3 (T323Y) mutant (circles) decreased the IC50 to ~ 30 mM. […] The pulse protocol is shown in the inset of panel b. No effect of 10 µM muscarine or oxotremorine methiodide was found in oocytes injected with KCNQ5 alone; and • Figs. 7A-C show the interactions between KCNQ2 and KCNQ5 (7A, 7B) and KCNQ3 and KCNQ5 (7C): • (7A) currents at the end of a two second pulse to 0 mV from a holding potential of -80 mV of oocytes injected with different combinations of KCNQ cRNAs (always 10 ng total amount of RNA). The current amplitude elicited by co-injecting KCNQ2 and KCNQ5 could be explained by a linear superposition of currents. Co-injection of KCNQ5 with the dominant negative mutant KCNQ2(G279S) or of KCNQ2 with the equivalent mutant KCNQ5(G278S) lead to a roughly 50% reduction in current amplitude, which is consistent with a lack of interaction since only 50% of WT cRNA was injected; • (7B) normalized current traces of experiments used for panel (A). […]

KCNQ2/KCNQ3 channels = KCNQ2/KCNQ3 channels (Homo sapiens, UniProt O43525+O43526); details: 200 µM; cited from earlier work
[2] = tested on: KCNQ5 co-expressed with M1 receptors; assay: KCNQ5 currents in Xenopus oocytes co-expressing M1 receptors (two-electrode voltage clamp); format: cell-based, human; details: 10 µM muscarine, 3 minutes after applying; Fig. 6
Text: Two-electrode voltage-clamp current traces from a Xenopus oocyte injected with KCNQ5 cRNA. […] Starting from a holding potential of -80 mV cells were clamped for 2 seconds to voltages between -80 and +40 mV, in +10 mV steps, followed by a constant test pulse to -30 mV; • Figs. 4A-G show the electrophysiological properties of KCNQ5. […] Starting from a holding potential of -80 mV, the voltage was stepped for 0.8 seconds to values between -100 and + 40 mV in steps of 10 mV, followed by a voltage step to -30 mV (see inset, panel A). Channel activation by depolarization was fitted (for 2 sec. steps) by a sum of three exponential functions. For a step to +20 mV, the rate constants were ô1 = 37. […] In this protocol, the membrane voltage is clamped for 1 second to voltages between -30 and -90 mV in steps of -10 mV, from a holding potential of -30 mV. This was followed by a step to -30 mV (panel C, inset). (4E, 4F), apparent open probabilities of variants I (4E) and variant III (4F) as a function of voltage obtained from tail current analysis as described in Methods. Mean values obtained from 12 oocytes are shown. […] For this fit, values at potentials more positive than +10 mV were excluded, as these are probably affected by a second (inactivation) gating process which leads to a decrease of apparent Popen at more positive potentials. (4G), ion selectivity of KCNQ5 currents (variant I). […]

T2 sequence (Q9NR82 36-932 limits assumed): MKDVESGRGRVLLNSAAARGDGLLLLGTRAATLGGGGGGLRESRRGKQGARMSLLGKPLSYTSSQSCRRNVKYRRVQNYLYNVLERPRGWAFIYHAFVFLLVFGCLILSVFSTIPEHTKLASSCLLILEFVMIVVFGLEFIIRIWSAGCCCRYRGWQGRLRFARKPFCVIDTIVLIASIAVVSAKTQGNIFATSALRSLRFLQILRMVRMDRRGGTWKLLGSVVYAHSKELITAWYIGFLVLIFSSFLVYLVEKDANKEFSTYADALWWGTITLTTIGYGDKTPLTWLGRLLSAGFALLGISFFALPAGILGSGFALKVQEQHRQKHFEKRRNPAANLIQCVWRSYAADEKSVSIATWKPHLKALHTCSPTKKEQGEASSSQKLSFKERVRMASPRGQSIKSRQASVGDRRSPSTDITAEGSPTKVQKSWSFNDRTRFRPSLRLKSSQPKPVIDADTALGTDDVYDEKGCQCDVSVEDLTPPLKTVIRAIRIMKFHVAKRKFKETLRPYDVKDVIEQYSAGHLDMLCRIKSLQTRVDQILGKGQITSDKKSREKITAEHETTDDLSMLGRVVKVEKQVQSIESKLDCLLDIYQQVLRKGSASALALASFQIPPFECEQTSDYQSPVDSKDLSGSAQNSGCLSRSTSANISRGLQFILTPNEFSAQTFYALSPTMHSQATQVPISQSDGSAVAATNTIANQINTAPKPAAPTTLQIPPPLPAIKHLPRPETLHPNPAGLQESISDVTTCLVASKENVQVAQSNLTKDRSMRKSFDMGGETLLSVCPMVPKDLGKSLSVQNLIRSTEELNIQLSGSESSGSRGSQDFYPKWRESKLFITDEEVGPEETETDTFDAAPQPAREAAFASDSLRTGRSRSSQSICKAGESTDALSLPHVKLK
KCNQ2/KCNQ3 channels, sequence (O43526 whole entry): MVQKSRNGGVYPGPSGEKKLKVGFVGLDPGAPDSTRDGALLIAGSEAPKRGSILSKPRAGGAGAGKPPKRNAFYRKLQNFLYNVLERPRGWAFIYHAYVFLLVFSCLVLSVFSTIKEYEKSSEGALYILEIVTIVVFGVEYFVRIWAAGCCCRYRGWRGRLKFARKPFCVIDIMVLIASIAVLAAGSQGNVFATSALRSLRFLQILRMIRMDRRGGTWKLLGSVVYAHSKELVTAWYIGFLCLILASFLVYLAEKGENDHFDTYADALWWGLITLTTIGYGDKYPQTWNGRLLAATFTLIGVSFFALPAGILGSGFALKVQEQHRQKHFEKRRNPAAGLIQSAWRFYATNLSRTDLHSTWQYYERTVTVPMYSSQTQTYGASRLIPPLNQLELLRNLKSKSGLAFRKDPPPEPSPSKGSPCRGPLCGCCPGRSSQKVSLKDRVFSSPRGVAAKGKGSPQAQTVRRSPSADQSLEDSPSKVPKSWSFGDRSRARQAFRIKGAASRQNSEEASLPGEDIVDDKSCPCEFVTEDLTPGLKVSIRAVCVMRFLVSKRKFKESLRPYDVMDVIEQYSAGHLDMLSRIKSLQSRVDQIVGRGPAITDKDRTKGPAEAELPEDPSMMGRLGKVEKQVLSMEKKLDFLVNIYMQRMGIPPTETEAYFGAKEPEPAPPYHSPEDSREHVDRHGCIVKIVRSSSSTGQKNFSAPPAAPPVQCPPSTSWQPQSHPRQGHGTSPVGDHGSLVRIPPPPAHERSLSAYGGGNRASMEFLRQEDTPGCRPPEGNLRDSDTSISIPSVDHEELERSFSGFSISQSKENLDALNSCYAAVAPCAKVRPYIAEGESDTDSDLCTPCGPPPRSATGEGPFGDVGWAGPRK
KCNQ2/KCNQ3 channels, sequence (O43525 whole entry): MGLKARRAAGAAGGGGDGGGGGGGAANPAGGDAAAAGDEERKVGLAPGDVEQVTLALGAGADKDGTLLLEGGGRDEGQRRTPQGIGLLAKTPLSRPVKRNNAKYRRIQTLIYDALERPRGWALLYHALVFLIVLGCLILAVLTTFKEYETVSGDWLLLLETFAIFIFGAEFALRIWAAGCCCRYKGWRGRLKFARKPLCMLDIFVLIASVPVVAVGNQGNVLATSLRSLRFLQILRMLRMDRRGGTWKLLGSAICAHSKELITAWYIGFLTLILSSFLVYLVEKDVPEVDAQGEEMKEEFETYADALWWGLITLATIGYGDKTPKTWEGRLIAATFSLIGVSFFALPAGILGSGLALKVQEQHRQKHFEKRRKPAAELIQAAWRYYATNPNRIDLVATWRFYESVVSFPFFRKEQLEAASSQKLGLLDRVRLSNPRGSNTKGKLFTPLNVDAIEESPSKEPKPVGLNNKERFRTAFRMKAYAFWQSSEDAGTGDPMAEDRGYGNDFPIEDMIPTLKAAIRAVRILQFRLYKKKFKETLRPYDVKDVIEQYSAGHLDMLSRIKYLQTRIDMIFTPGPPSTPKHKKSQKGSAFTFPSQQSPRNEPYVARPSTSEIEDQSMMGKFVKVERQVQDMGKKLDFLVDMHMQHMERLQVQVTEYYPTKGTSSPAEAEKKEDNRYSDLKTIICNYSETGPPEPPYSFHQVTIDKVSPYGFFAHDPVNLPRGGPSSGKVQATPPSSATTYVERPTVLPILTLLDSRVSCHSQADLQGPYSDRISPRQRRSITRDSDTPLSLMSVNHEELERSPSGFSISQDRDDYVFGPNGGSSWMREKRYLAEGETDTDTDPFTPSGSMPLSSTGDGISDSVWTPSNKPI
T1 sequence (Q9NR82 36-932 limits assumed): as the sequence (Q9NR82 36-932 limits assumed) above
T1 sequence (O43525 whole entry T323Y): as the sequence (O43525 whole entry) above, with T323Y counted along it

CC[N+](CC)(CC)CC [TEA]
IC50 [1]: ~30 mM
IC50 (KCNQ5): 71 ± 17 mM

O=C1N(c2ccccc2)c2ccccc2C1(Cc1ccncc1)Cc1ccncc1 [Linopirdine, 1,3-dihydro-1-phenyl-3,3-bis-(4-pyridylmethyl)-2H-indol-2-one]
inhibition of KCNQ2/KCNQ3 channels (KCNQ2/KCNQ3 channels): nearly completely inhibits
inhibition at 200 µM (KCNQ5; 200 µM Linopirdine in ND98): ~80%
IC50 (KCNQ5): 0.051 ± 0.005 mM

O=C(O)c1cccnc1Nc1cccc(C(F)(F)F)c1 [Niflumic acid]
shift of the voltage dependence of the apparent popen towards negative potentials (KCNQ5; 500 µM niflumic acid, Fig. 5B): about 20 mV

[Ba+2] [Ba^++]
inhibition of KCNQ5 currents (KCNQ5; 5 mM Ba++): more than 80%

C[C@@H]1O[C@H](C[N+](C)(C)C)C[C@H]1O [muscarine]
effect on KCNQ5 currents by stimulating co-expressed M1 receptors [2]: inhibition of KCNQ5 currents
effect on KCNQ5 currents (KCNQ5): No effect

C[N+](C)(C)CC#CCN1CCCC1=O [oxotremorine methiodide]
effect on KCNQ5 currents (KCNQ5): No effect
